Patent US20050203119A1, “Dihydropyridine compounds for treating or preventing metabolic disorders” (priority 2003, published 2005)

Assays:
[1] = test system: NIDDM male mice (C57BLKS/J-m+/+Lepr db); assay: 7 day baseline glucose test in db/db mice (Example 119); assay type: in vivo, mouse; conditions: for Serum Glucose % Pre-Treatment Baseline: 3 hours after dose
Method: Non-insulin dependent diabetic mellitus (NIDDM) male mice (C57BLKS/J-m+/+Lepr db), weighing 50±5 g and 9-10-week old, were used. The animals were housed in Individually Ventilated Cages Racks (IVC Racks) throughout the experiment and all animals were allowed free access to sterilized Lab chow and sterilized distilled water. Compounds 39, 41 and 64 at 50 mg/kg as well as vehicle (0.5% Methylcellulose) were administered orally once daily for 7 consecutive days to test animals after the first blood sampling (pre-treatment). The post-treatment blood samples were withdrawn from the orbital sinus at 3 hours after administration of daily dose on day 3 and on day 7. Serum glucose levels in the pre- and post-treatment were determined by enzymatic (Mutaratase-GOD) methods. Post-treatment serum glucose values were expressed in percentage of respective pre-treatment values. Percentage reductions were expressed in percentage of pre-treatment values of test substance relative to percentage of pre-treatment values of vehicle. All percentages were calculated and unpaired; Student's t test was then applied to establish significant difference between the test compound-treated and vehicle control groups. Differences are considered significant at P<0.05.

[2] = test system: male db/db mice (C57BLKS/J-m+/+Lepr db/Iar); assay: Seven day baseline glucose (7DBG) study in fed db/db mice (Example 123, FIGS. 6 and 8); assay type: in vivo, mouse; conditions: oral once daily 7 days
Method: (§1) To determine the effect of a test compound on blood glucose levels in fed diabetic mice, seven day baseline glucose (7DBG) studies were conducted. Six to eight week old, male db/db mice (C57BLKS/J-m+/+Lepr^db/Iar), homozygous for a mutation in the gene encoding the leptin receptor, were purchased from the Institute for Animal Reproduction (Kasumigaura, Japan). Six to eight week old male KK-A^y mice (KK-A^y/Ta Jcl), a polygenic diabetes model, were purchased from Cler Japan (Tokyo, Japan). Animals were housed four to a cage in micro-isolators on a 12 hr/12 hr light/dark cycle, acclimated for at least one week prior to use and fed normal laboratory chow ad libitum. Studies were conducted with animals between nine and fourteen weeks of age. […]
(§2) To perform a 7DBG study, the starting glucose levels of db/db or KK-Ay mice in the fed state were determined on day 0, 24 hrs prior to the first drug dose on day 1. Animals were retro-orbitally bled and serum glucose levels measured by the mutarotase-glucose oxidase enzymatic method using a Glucose CII-Test Wako kit (Wako Pure Chemicals Industries, Ltd., Osaka, Japan). […] Serum glucose levels were determined 3 hrs after dosing the first compound on days 3 and 7.
The serum glucose levels on days 3 or 7 as a percent of the serum glucose levels on day 0 for individual animals in each group (6-7 mice/group), calculated using Formula 3: [formula] […]

[3] = test system: male KK-Ay mice (KK-Ay/Ta Jcl); assay: Seven day baseline glucose (7DBG) study in fed KK-Ay mice (Example 123, FIG. 7); assay type: in vivo, mouse; conditions: oral once daily 7 days
Method: as §1, §2
The serum glucose levels on days 3 or 7 as a percent of the serum glucose levels on day 0 for individual animals in each group (8 mice/group), were calculated using Formula 3. […]

[4] = test system: Male ZDF rats (ZDF/GmiCrl-fa/fa); assay: Oral glucose tolerance test in fasted ZDF rats after 8 days of dosing (Example 124, FIG. 10); assay type: in vivo, rat; conditions: OGTT
Method: Male ZDF rats (ZDF/GmiCrl-fa/fa), homozygous for a mutation in the gene encoding the leptin receptor, were purchased from Charles River Laboratories (Wilmington, Mass., USA). Animals were individually housed in clear polycarbonate cages (contact bedding) on a 12 hr/12 hr light/dark cycle, acclimated for at least one week prior to use and fed normal laboratory chow (Purina No. 5008) ad libitum. Studies were conducted with animals starting between eleven and twelve weeks of age. Animals were used for a single study before being replaced. […] As noted above, animals were dosed on day 8 on the same schedule as was used for days 1 through 7 of the 7DBG study. […] Serum glucose levels were determined using a laboratory analyzer. […] This may be due to the dose of metformin (250 mg/kg) that was used, which may be too high to observe any synergy between the two compounds. […] The indicated time points are relative to the oral glucose dose.

[5] = Day 3, 50 mg/kg orally once daily
[6] = Day 7, 50 mg/kg orally once daily

CCOC(=O)C1=C(COCCN)NC2=C(C(=O)CC(C)(C)C2)C1c1cccnc1 (stereo not drawn) [Compound 39, 2-(2-Amino-ethoxymethyl)-7,7-dimethyl-5-oxo-4-pyridin-3-yl-1,4,5,6,7,8-hexahydro-quinoline-3-carboxylic acid ethyl ester]
serum glucose % Reduction relative to vehicle [1, 5]: (3) %
Serum Glucose % Pre-Treatment Baseline [1, 5]: 98.5%
serum glucose % Reduction relative to vehicle [1, 6]: (18) %
Serum Glucose % Pre-Treatment Baseline [1, 6]: 82.3%
glucose lowering activities of rosiglitazone and metformin in combination with Compound 39 (FIG. 8) [2]: enhanced
glucose lowering activities of rosiglitazone and metformin in combination with Compound 39 (FIG. 7) [3]: enhanced
serum glucose (FIG. 7) ([3]; Compound 39 alone): decreased serum glucose
glucose intolerance relative to vehicle-treated animals (FIG. 10) ([4]; after daily oral dosing for 8 days): decreased
effect of metformin on glucose tolerance in combination with Compound 39 (FIG. 10) ([4]; metformin 250 mg/kg): did not appear to enhance
